Calls of active or inactive are those of the source. The rule behind the calls is not given here.

The test system of assay [1] is Nicotiana tabacum. Put plainly: Induction of systemic acquired resistance against Oidium in Nicotiana tabacum cv. Xanthi nc (tobacco) assessed as decrease in lesion size applied as soil-drench 5 days prior to infection measured after 5 days. It counts as functional, organism-based.
For assay [2], the system named is Pseudomonas amygdali pv. tabaci. Put plainly: Antibacterial activity against Pseudomonas syringae pv. tabaci up to 500 ug/ml. The assay is classed as functional, organism-based.
The test system of assay [3] is Nicotiana tabacum. The experiment in a line: Induction of systemic acquired resistance against Pseudomonas syringae pv. tabaci in Nicotiana tabacum cv. Xanthi nc (tobacco) assessed as decrease in Nicotiana tabacum (tobacco) wildfire disease symptoms at 1 to 2 mg/pot applied as soil-drench 5 days prior to infection measured after 3 days relative to control. It counts as functional, organism-based.

Assay [4] relates to Nicotiana tabacum. Put plainly: Induction of N-gene mediated systemic acquired resistance against TMV in Nicotiana tabacum cv. Xanthi nc (tobacco) assessed as lesion size at 0.1 mg/pot applied by soil-drench 5 days prior to infection measured after 5 days relative to control. It counts as functional.
In assay [5] the test system is Nicotiana tabacum. Put plainly: Induction of systemic acquired resistance against Pseudomonas syringae pv. tabaci in Nicotiana tabacum cv. Xanthi nc (tobacco) assessed as inhibition of bacterial growth in infected tissues at 1 to 2 mg/pot applied as soil-drench 5 days prior to infection measured after 3 days relative to control. The assay is classed as functional, organism-based.

In assay [6] the test system is Nicotiana tabacum. Put plainly: Induction of N-gene mediated systemic acquired resistance against TMV in Nicotiana tabacum cv. Xanthi nc (tobacco) assessed as lesion size at 10 mg/pot applied by soil-drench 5 days prior to infection measured after 5 days relative to control. The assay is classed as functional.
Assay [7] deals with Nicotiana tabacum. The experiment in a line: Induction of N-gene mediated systemic acquired resistance against TMV in Nicotiana tabacum cv. Xanthi nc (tobacco) assessed as lesion size at 1 mg/pot applied by soil-drench 5 days prior to infection measured after 5 days relative to control. It counts as functional.
The subject of assay [8] is Nicotiana tabacum. The experiment in a line: Induction of systemic acquired resistance in Nicotiana tabacum cv. Xanthi nc (tobacco) assessed as effect on total salicylic acid level in leaves at 1 mg/pot applied as soil-drench measured up to 7 days by fluorometric analysis relative to control. It counts as functional, organism-based.
Assay [9] relates to Nicotiana tabacum. The experiment in a line: Induction of systemic acquired resistance in Nicotiana tabacum cv. Xanthi nc (tobacco) assessed as effect on free salicylic acid level in leaves at 1 mg/pot applied as soil-drench measured up to 7 days by fluorometric analysis relative to control. It counts as functional, organism-based.
In assay [10] the test system is Nicotiana tabacum. Put plainly: Induction of systemic acquired resistance in transgenic Nicotiana tabacum cv. Xanthi nc (tobacco) expressing bacterial NahG assessed as increase in PR1 mRNA level at 0.01 to 0.5 mg/ml applied as foliar spray measured after 4 days by Northern blot analysis relative to control. It counts as functional, organism-based.
In assay [11] the test system is Nicotiana tabacum. The experiment in a line: Induction of systemic acquired resistance in transgenic Nicotiana tabacum cv. Xanthi nc (tobacco) expressing bacterial NahG assessed as increase in PR1 mRNA level at 1 to 2 mg/pot applied as soil-drench measured after 4 days by Northern blot analysis relative to control. The assay is classed as functional, organism-based.

Assay [12] has as its system Nicotiana tabacum. Put plainly: Induction of systemic acquired resistance against Pseudomonas syringae pv. tabaci in transgenic Nicotiana tabacum cv. Xanthi nc (tobacco) expressing bacterial NahG assessed as inhibition of bacterial growth in infected tissues at 1 to 2 mg/pot applied as soil-drench 5 days prior to infection measured after 3 days relative to control. The assay is classed as functional, organism-based.

The subject of assay [13] is Nicotiana tabacum. Put plainly: Induction of N-gene mediated systemic acquired resistance against TMV in transgenic Nicotiana tabacum cv. Xanthi nc (tobacco) expressing bacterial NahG assessed as decrease in lesion size at 0.1 to 2 mg/pot applied by soil-drench 5 days prior to infection measured after 5 days relative to control. It counts as functional, organism-based.

For assay [14], the system named is Nicotiana tabacum. Put plainly: Induction of systemic acquired resistance in Nicotiana tabacum cv. Xanthi nc (tobacco) assessed as increase in PR5 mRNA level at 0.01 to 0.5 mg/ml applied as foliar spray measured after 4 days by Northern blot analysis relative to control. The assay is classed as functional, organism-based.
Assay [15] has as its system Nicotiana tabacum. Put plainly: Induction of systemic acquired resistance in Nicotiana tabacum cv. Xanthi nc (tobacco) assessed as increase in PR2 mRNA level at 0.01 to 0.5 mg/ml applied as foliar spray measured after 4 days by Northern blot analysis relative to control. The assay is classed as functional, organism-based.
Assay [16] relates to Nicotiana tabacum. Put plainly: Induction of systemic acquired resistance in Nicotiana tabacum cv. Xanthi nc (tobacco) assessed as increase in PR1 mRNA level at 0.01 to 0.5 mg/ml applied as foliar spray measured after 4 days by Northern blot analysis relative to control. It counts as functional, organism-based.
Assay [17] has as its system Nicotiana tabacum. Put plainly: Induction of systemic acquired resistance in Nicotiana tabacum cv. Xanthi nc (tobacco) assessed as increase in PR1 mRNA level at 1 mg/pot applied as soil-drench measured after 24 hr by Northern blot analysis relative to control. The assay is classed as functional, organism-based.
The subject of assay [18] is Nicotiana tabacum. Put plainly: Induction of systemic acquired resistance in Nicotiana tabacum cv. Xanthi nc (tobacco) assessed as increase in PR5 mRNA level at 1 to 2 mg/pot applied as soil-drench measured after 4 days by Northern blot analysis relative to control. It counts as functional, organism-based.
The test system of assay [19] is Nicotiana tabacum. Put plainly: Induction of systemic acquired resistance in Nicotiana tabacum cv. Xanthi nc (tobacco) assessed as increase in PR2 mRNA level at 1 to 2 mg/pot applied as soil-drench measured after 4 days by Northern blot analysis relative to control. The assay is classed as functional, organism-based.
Assay [20] relates to Nicotiana tabacum. Put plainly: Induction of systemic acquired resistance in Nicotiana tabacum cv. Xanthi nc (tobacco) assessed as increase in PR1 mRNA level at 1 to 2 mg/pot applied as soil-drench measured after 4 days by Northern blot analysis relative to control. It counts as functional, organism-based.
Assay [21] has as its system Nicotiana tabacum. The experiment in a line: Induction of N-gene mediated systemic acquired resistance against TMV in Nicotiana tabacum cv. Xanthi nc (tobacco) assessed as decrease in lesion size at 0.1 mg/pot applied by soil-drench 5 days prior to infection measured after 5 days relative to control. The assay is classed as functional, organism-based.

Turning to `Cn1nc(Cl)cc1C(=O)O` [3-CHLORO-1-METHYL-1H-PYRAZOLE-5-CARBOXYLIC ACID], the Activity entry is “Dose-dependent effect” in the assay with Nicotiana tabacum [1], 50% with Nicotiana tabacum [4], under 10% with Nicotiana tabacum [6] and under 10% in the assay on Nicotiana tabacum [7]. The result (in [2]; in the assay with Nicotiana tabacum [8]; with Nicotiana tabacum [9]) was inactive. Moreover, the outcome in the assay with Nicotiana tabacum [3], in the assay on Nicotiana tabacum [5], in the assay on Nicotiana tabacum [10], with Nicotiana tabacum [11], with Nicotiana tabacum [12] and in the assay with Nicotiana tabacum [13] was Active. Also, the outcome in the assay with Nicotiana tabacum [14], in the assay with Nicotiana tabacum [15], with Nicotiana tabacum [16], in the assay with Nicotiana tabacum [17], in the assay on Nicotiana tabacum [18] and in the assay on Nicotiana tabacum [19] was Active. In the assay on Nicotiana tabacum [20], the result was Active.
Consider `CSC(=O)c1cccc2nnsc12`, for which, in the assay with Nicotiana tabacum [1], the Activity result was “Dose-dependent effect”. The outcome in the assay on Nicotiana tabacum [21] was Active.

For the origin of these results see ChEMBL document CHEMBL3044732, “Pyrazolecarboxylic acid derivative induces systemic acquired resistance in tobacco” (2003).
